Where “and” joins values, the source holds several entries; their conditions need not be identical. Identical values can stand only once.
System: 171881-019-R-J1-PDC multicell spheroid viability
Experiment: Anticancer human tumor 171881-019-R-J1-PDC patient-derived invasive breast carcinoma cell line growth inhibition [IpAb]
Settings: for viability, T/C: stronger effect = lower value
Excerpt: Combinatorial screen of targeted agents with ipatasertib and abemaciclib in multi-cell type tumor spheroids
A high-throughput screen of multi-cell type tumor spheroids was designed to identify active combinations of targeted small molecules and ipatasertib or abemaciclib. Complex spheroids include a stromal component modeled by human endothelial cells (HUVEC) and fibroblasts modeled by human mesenchymal stem cells (MSCs). The concentration ranges selected for each drug and investigational agent were based upon clinically achievable concentrations if the clinical Cmax of the agent was known.
Compounds. The drugs and investigational agents: ipatasertib (NSC767898), abemaciclib(NSC768073), selumetinib (NSC741078), trametinib (758246), adavosertib (NSC754352), everolimus (NSC733504), sapanisertib (NSC764658), vemurafenib (NSC761431), venetoclax (NSC766270), copanlisib (NSC809693), apelisib (NSC765974), palbociblib (NSC758247), vemurafenib (NSC761431), dabrafenib (NSC764134), ravoxertinib (NSC781343), BMS-387032 (NSC767048), sotorasib (NSC818433), talazoparib (NSC767125) and afursertib (NSC778305), were obtained from the National Cancer Institute (NCI) Developmental Therapeutics Program Chemical Repository. The FDA-approved anticancer drug set is available from the NCI Developmental Therapeutics Program. […] The stock solutions were prepared in dimethyl sulfoxide (DMSO, Sigma-Aldrich, St. Louis, MO, cat. D2650) at 800-fold the tested concentration and stored at -70 degrees C prior to their use. All drugs and investigational agents were tested over a range starting from a high concentration at or near the clinical Cmax and decreasing in half-log increments. If the clinical Cmax for an agent had not been determined, the highest concentration tested was 10 microM.
NCI60 Cell Culture. NCI60 cell lines were obtained from the NCI Developmental Therapeutics Program Tumor Repository. For each lot of cells, the Repository performed Applied Biosystems AmpFLSTR Identifiler testing with PCR amplification to confirm consistency with the published Identifier STR profile for each cell line. Cells were kept in continuous culture for no more than 20 passages. The optimal seeding densities for each of the cell lines at each time point assessed were determined prior to performing the concentration response studies. Briefly, the NCI60 human tumor lines were grown as monolayers in RPMI 1640 medium supplemented with 10% FBS and 2 mmol/L L-glutamine.
An additional 9 lines were from the NCI60 cell line panel including MDA-MB-231 breast carcinoma, MDA-MB-468 breast carcinoma, MCF7 breast carcinoma, Hs578T breast carcinoma, MALME-3M melanoma, SK-MEL-2 melanoma, SK-OV-3 ovarian carcinoma, DU-145 prostate carcinoma, PC-3 prostate carcinoma, all cell lines along with major genetic alterations are listed on Table 2. Pooled donor human umbilical vein endothelial cells (HUVEC, Lonza, cat. CC-2519) and human mesenchymal stem cells (hMSC, Lonza, cat. PT-2501) were purchased from Lonza (Walkersville, MD).
PDMR cell lines were grown in complete medium (DC medium): Dulbecco's modified Eagle's medium (DMEM)/F12 supplemented with 5% fetal bovine serum (FBS), 2 mM L-glutamine, 100 U/mL penicillin and 100 µg/ml streptomycin, 0.4 µg/ml hydrocortisone, 10 ng/ml epidermal growth factor (EGF) recombinant human protein, 24 µg/mL adenine, and 0.1 mg/mL primocin. During culture from frozen stock vials, PDMR cells were cultured in the same medium containing 10 µM Y-27632 (see Table 3). The PDCs were cultured in complete DMEM/F12 media without 10 microM Y-27632 dihydrochloride for at least two passages prior to the screen. The pooled donor HUVEC and hMSC were cultured in endothelial cell growth medium 2 (PromoCell, Heidelberg, Germany, cat. C-22011) and mesenchymal stem cell growth medium 2 (PromoCell, cat. C-28009), respectively. For all experiments, HUVEC and hMSC were used at passages </=5.
[…]

[1] = compound alone, run of 05/18/2021
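Also: spheroids exposed to the agents for seven days before readout.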

Row | SMILES | IC50 (curve of compound) | viability, T/C (compound 0.0316 µM) | viability, T/C (compound 0.1 µM) | viability, T/C (compound 0.316 µM) | viability, T/C (compound 1 µM) | viability, T/C (compound 3.16 µM) | viability, T/C (compound 10 µM) | viability, T/C (compound 0.01 µM) | other results
1 | CC(C)(C)c1cnc(CSc2cnc(NC(=O)C3CCNCC3)s2)o1 | 0.202 µM and 0.176 µM | – | – | – | – | – | – | – | viability, T/C (compound 0.00949 µM): 96% and 96.9%; viability, T/C (compound 0.03 µM): 109% and 96.1%; viability, T/C (compound 0.0949 µM): 116% and 119%; viability, T/C (compound 0.3 µM): 20.1% and 3.63%; viability, T/C (compound 0.949 µM): 0.52% and 0.41%; viability, T/C (compound 3 µM): 0.65% and 0.81%
2 | CC(C)NCC(C(=O)N1CCN(c2ncnc3c2C(C)CC3O)CC1)c1ccc(Cl)cc1 (stereo not given) | – | – | – | – | 27.9% [middle of 13 runs] | 11.2% [middle of 13 runs] | 6.7% [middle of 12 runs] | – | IC50 [1]: 618 nM [middle of 13 runs]
3 | CC(C)n1nc(-c2ccc3oc(N)nc3c2)c2c(N)ncnc21 | 0.00627 µM and 0.00458 µM | 4.54% and 3.87% | 2.72% and 2.73% | – | – | – | – | 28.1% and 18.6% | viability, T/C (compound 0.000316 µM): 109% and 103%; viability, T/C (compound 0.001 µM): 114% and 106%; viability, T/C (compound 0.00316 µM): 82.1% and 64%
4 | CC1(C)CCC(CN2CCN(c3ccc(C(=O)NS(=O)(=O)c4ccc(NCC5CCOCC5)c([N+](=O)[O-])c4)c(Oc4cnc5[nH]ccc5c4)c3)CC2)=C(c2ccc(Cl)cc2)C1 | 6.28 µM and 5.55 µM | 107% and 93.6% | 102% and 84.1% | 93.8% and 78.3% | 92.5% and 66.3% | 89.8% and 87.8% | 23.9% and 16.5% | – | –
5 | CCCS(=O)(=O)Nc1ccc(F)c(C(=O)c2c[nH]c3ncc(-c4ccc(Cl)cc4)cc23)c1F | > 10 µM | 111% and 90.2% | 95.2% and 83% | 86.9% and 93.1% | 90.1% and 80.4% | 78.3% and 72.6% | 76.2% and 87.7% | – | –
6 | CCN1CCN(Cc2ccc(Nc3ncc(F)c(-c4cc(F)c5nc(C)n(C(C)C)c5c4)n3)nc2)CC1 | – | 105% [middle of 13 runs] | 116% [middle of 13 runs] | – | 149% [middle of 13 runs] | – | – | 91.6% [middle of 13 runs] | IC50 [1]: > 1 µM
7 | COc1c(OCCCN2CCOCC2)ccc2c3n(c(=NC(=O)c4cnc(N)nc4)nc12)CCN3 | 0.0146 µM and 0.0202 µM | 17.4% and 33.4% | 4.32% and 7.03% | 1% and 1.49% | 1.51% and 1.79% | – | – | 65.8% and 77.7% | viability, T/C (compound 0.00316 µM): 109% and 115%

Further lines, with some results ahead:

Row | IC50 (curve of compound) | SMILES | viability, T/C (compound 0.0316 µM) | viability, T/C (compound 0.1 µM) | viability, T/C (compound 0.316 µM) | viability, T/C (compound 1 µM) | viability, T/C (compound 3.16 µM) | viability, T/C (compound 10 µM) | viability, T/C (compound 0.01 µM) | other results
8 | 7.47 µM and 6.74 µM | C=CC(=O)N1CCN(c2nc(=O)n(-c3c(C)ccnc3C(C)C)c3nc(-c4c(O)cccc4F)c(F)cc23)C(C)C1 (stereo not given) | 98.7% and 101% | 92.3% and 95.8% | 99% and 106% | 94.1% and 95.3% | 93.6% and 84.7% | 35.2% and 31.8% | – | –
9 | 0.768 µM and 0.786 µM | C=CCn1c(=O)c2cnc(Nc3ccc(N4CCN(C)CC4)cc3)nc2n1-c1cccc(C(C)(C)O)n1 | 89.9% and 111% | 106% and 111% | 104% and 133% | 35.1% and 43.7% | 28.2% and 27.2% | 27.9% and 24.9% | – | –
10 | > 0.3 µM | CC(=O)c1c(C)c2cnc(Nc3ccc(N4CCNCC4)cn3)nc2n(C2CCCC2)c1=O | – | – | – | – | – | – | – | viability, T/C (compound 0.000949 µM): 103% and 97.8%; viability, T/C (compound 0.003 µM): 92.6% and 92.2%; viability, T/C (compound 0.00949 µM): 102% and 103%; viability, T/C (compound 0.03 µM): 99.4% and 94%; viability, T/C (compound 0.0949 µM): 105% and 96.1%; viability, T/C (compound 0.3 µM): 115% and 105%

Source: PubChem BioAssay AID2060342 (Molecular Pharmacology Branch, DTP, NCI, 2025)
